Test results reported in PubChem BioAssay AID463229 (Broad Institute, 2010).
Activity calls are given as the source filed them.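 The calls were made as follows: active = compounds raising the signal whose fitted half-maximal concentration is at or below their top tested dose (cut at about 25 µM in these data); inconclusive = flat fit at 30 to 70% activity, or a poor fit; inactive = the rest.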

Test system: INS-1E rat beta cells, no cytokines, CellTiter-Glo ATP, 48 h
Test: ATP level change in INS-1E without cytokines, dose response, counter-screen for beta-cell apoptosis protection project, INS-1E rat cells, ATP luminescence, cherry pick (AID 463229)

Point of comparison: `CN(CC1CCCO1)S(=O)(=O)c1ccc(C(=O)Nc2nc(-c3ccccn3)cs2)cc1` (stereo not drawn), AC50 10.4 µM. Against it:
- COc1cc(-c2nc3ccc(C)cn3c2NCc2ccccc2)ccc1-c1cccc(Cl)c1 — 2.2-fold lower, 4.66 µM
- COc1ccc(-c2c[n+]3c4n2CCCCC4=C(c2ccc(Br)cc2)C3)cc1 — 3.3-fold lower, 3.14 µM
- CCCCCCCCNC(C)C(O)c1ccc(SC(C)C)cc1 (stereo not drawn) — within 1.5-fold, 10.5 µM
- Cc1ccc2nc(NNC(=O)c3ccc(S(=O)(=O)N4CCc5ccccc5C4)cc3)sc2c1 — 2.5-fold lower, 4.18 µM
- O=C(N/N=C/c1ccc([N+](=O)[O-])s1)C(O)c1ccccc1 (stereo not drawn) — within 1.5-fold, 6.99 µM
- COc1ccc(NS(=O)(=O)c2ccc(-c3coc(C)n3)cc2)cc1OC — 2.4-fold lower, 4.39 µM
- O=C(OCn1ncc(Cl)c(Cl)c1=O)c1ccccc1Cl — within 1.5-fold, 7.84 µM
- CCCOc1ccc(/C=N/Nc2cc(N3CCOCC3)ncn2)c(O)c1 — within 1.5-fold, 8.02 µM
- COc1ccc2nc(C)cc(SCC(=O)N/N=C/c3ccc(O)cc3O)c2c1 — 1.7-fold higher, 17.4 µM
- C=CC[n+]1c(/C=C2\C=Cc3cc(C)ccc3N2CC)ccc2ccccc21 — lower, < 0.195 µM
- CCOC(=O)C1=C(c2ccc(OC)cc2)C(=O)c2ccccc2C1=O — 2.7-fold lower, 3.83 µM
- C=C1CCc2c([nH]c3ccc(OCC(C)C)cc23)C1=O — within 1.5-fold, 7.5 µM
- Cc1cccc(CNc2ncnc3ccc(-c4ccc5c(c4)OCCO5)cc23)c1 — within 1.5-fold, 7.27 µM
- NC(=O)c1ccc(N2CCN(S(=O)(=O)c3cccs3)CC2)c([N+](=O)[O-])c1 — 1.6-fold lower, 6.36 µM
- CCC(CO)Oc1cc(NCc2ccc(C)c(C)c2)c2ncn(C(C)C)c2c1 (stereo not drawn) — 2.1-fold lower, 4.91 µM
- COc1ccc(O)c(/C=N/NC(=O)c2ccc(OCc3cccc(Br)c3)cc2)c1 — 1.9-fold higher, 19.8 µM
- CC(C)C[C@H]1CN=C(Nc2ccccc2)N1CC1CCC(C(C)(C)C)CC1 (stereo partly drawn) — within 1.5-fold, 8.6 µM
- Cc1cc(C(C)(C)C)cc(C)c1Cn1c2[n+](c3ccc(C(F)(F)F)cc31)CCCCC2 — 2.5-fold lower, 4.19 µM
- O=C(Nc1nc(NC(=O)c2ccco2)n(-c2ccccc2)n1)c1ccccc1 — 1.5-fold lower, 6.83 µM
- CCOC(=O)N1CCN(S(=O)(=O)c2ccc(C(=O)NNc3nc4ccc(Cl)cc4s3)cc2)CC1 — 1.9-fold lower, 5.43 µM
- Cc1ccc(O)c(N=Nc2nccs2)c1 — within 1.5-fold, 7.04 µM
- CN(c1ccccc1)c1ccc(/C=C/[N+](=O)[O-])cc1 — within 1.5-fold, 8.01 µM
- CC1=NOC(=O)/C1=C/c1ccc(-c2ccc(Cl)cc2)o1 — within 1.5-fold, 7 µM
- COc1ccc(C)cc1Nc1n[n+](-c2ccccc2)c(-c2c(OC)ccc3ccccc23)s1 — 1.5-fold lower, 6.88 µM
- c1ccc(-c2nc3nonc3nc2-c2ccccc2)cc1 — within 1.5-fold, 11.1 µM
- N#CC1=C(N)Oc2c(ccc3cccnc23)C1c1ccccc1 (stereo not drawn) — 1.9-fold higher, 19.3 µM
- CCOC(=O)c1c(NC(=O)/C=C/C(=O)O)sc(C)c1-c1ccc(C(C)(C)C)cc1 — within 1.5-fold, 7.17 µM
- CNC1=C(N(C(C)=O)c2ccc(Br)cc2)C(=O)c2ccccc2C1=O — 11-fold lower, 0.943 µM
- N#CC(c1cccc(Cl)c1)c1ccc2c(C(F)(F)F)cc(C(F)(F)F)nc2n1 (stereo not drawn) — 12-fold lower, 0.868 µM
- CCCCCCOc1ccc(CN2CCN(C)CC2)cc1 — within 1.5-fold, 11 µM
- CCCCCn1c(=O)c(C(=O)Nc2ncccc2C)c(O)c2ccccc21 — 1.5-fold lower, 6.75 µM
- COC(=O)C1=C(C)N(Cc2ccccc2)C(=NCc2cccc(Cl)c2)N[C@H]1c1cccc(F)c1 — 1.5-fold lower, 6.75 µM
- Cc1ccc2[nH]cc(/C=C/c3cc[n+](C)cc3)c2c1 — 1.9-fold lower, 5.46 µM
- C/C(=N\NC(=O)c1ccc(Cl)cc1)c1ccccn1 — 6.4-fold lower, 1.62 µM
- O=C(NCc1ccccc1)C1=C[C@@H](c2csc3ccccc23)C[C@@H](OCCCCO)O1 — 3.9-fold lower, 2.67 µM
- CC1=NN(c2nc3ccccc3[nH]2)C(=O)C1Cc1ccccc1 (stereo not drawn) — 5-fold lower, 2.1 µM
- COc1ccc(C(NC(C)=O)c2ccc3cccnc3c2O)c(OC)c1 (stereo not drawn) — 2.5-fold lower, 4.24 µM
- Cc1ccc(N=Cc2c(C)[nH]n(-c3nc4ccccc4[nH]3)c2=O)cc1 — 5.6-fold lower, 1.85 µM
- CCOc1ccc(-n2c(-c3ccc(OC)cc3)c[n+]3c2CCCCC3)cc1 — 36-fold lower, 0.289 µM
- O=C(Nc1ccc(OC(F)F)cc1)Nc1cccc(C(F)(F)F)c1 — within 1.5-fold, 7.65 µM
- CN1/C(=C\C(=O)C[n+]2cccc(Br)c2)C(C)(C)c2ccccc21 — 1.8-fold lower, 5.88 µM
- C/C(=N\NC(=O)c1ccc(Cl)c(Cl)c1)c1ccccn1 — 11-fold lower, 0.98 µM
- c1ccc(CCNc2ncnc3ccccc23)cc1 — 6.1-fold lower, 1.71 µM
- O=C(NCc1cccnc1)c1ccc(NC(=O)c2ccc(Br)cc2)cc1 — lower, < 0.195 µM
- C=CCn1c(SCN2C(=O)c3ccccc3C2=O)nc2ccc(Cl)cc2c1=O — within 1.5-fold, 7.16 µM
- O=C(N/N=C/c1cccc(F)c1)c1c(O)c2ccccc2[nH]c1=O — 2.4-fold lower, 4.35 µM
- Oc1c(Br)cc(Br)cc1/C=N/NC(=S)N[C@H]1CC2C=CC1C2 (stereo partly drawn) — within 1.5-fold, 12.1 µM
- c1ccc(-c2nc(N3CCCCCC3)c3ccccc3n2)nc1 — 1.5-fold lower, 6.8 µM
- O=[N+]([O-])c1ccc(-c2nc3ccc([N+](=O)[O-])cc3[nH]2)cc1 — 1.5-fold lower, 6.93 µM
- CC(NCC(O)COCCC12CC3CC(CC(C3)C1)C2)c1ccccc1 (stereo not drawn) — within 1.5-fold, 8.29 µM
- CC(C)Cn1c(SCC(=O)N2CCc3ccccc3C2)nc2cc(Cl)ccc2c1=O — 1.6-fold lower, 6.5 µM

With `c1ccc(C2(Cn3ccc4ccccc43)OCCO2)cc1` the AC50 was > 26 µM (inactive).
